Assay results published in patent US20090203594A1, “Anticancer peptide” (priority 2004, published 2009).
Read-outs that look alike come from different tables or passages of the source. No end group written: not given here.

Experiments:
ICR 27 leukemic cells = assay: Reduction in ICR 27 leukemic cells by exogenous application of peptide (cell count); type: cell-based, human; details: for Cells/ml after 23 h: 1 h in serum-free medium then growth medium, average of duplicate counts; for cell killing: ICR-27, peptide added exogenously without electroporation
Method: At the maximum dose tested in this experiment, pDBD*4R9 caused over a 2-log loss of cells.
At t=0, growing cells were removed from medium, washed, and plated at 4.0×10^6 cells/ml in serum-free medium to which the peptide was added from a stock solution. Control peptide was GnRHR7 (Gonadotropin Releasing Hormone with a 7-arginine polymer added covalently). One hour later cells were diluted into growth medium. After 23 h, each culture was counted in duplicate. Average values are shown. Similar dose-related responses to pDBD*4R9 have been seen in 3 experiments.

[1] = test system: non-malignant NIH-3T3 cells; assay: WST-1 dye reduction viability assay, NIH-3T3; type: cell-based
Method: (§1) A more quantitative assay was carried out using as an endpoint the reduction of a water-soluble tetrazolium dye (WST-1). This method has been employed to follow the effects of various chemotherapeutic agents on malignant cells (Hwang, W. S., Chen, L. M., Huang, S. H., Wang, C. C., Tseng, M. T. Prediction of chemotherapy response in human leukemia using in vitro chemosensitivity test. Leuk Res. 17:685-688, 1993; Pieters, R., Loonen, A. H., Huismans, D. R., Broekema, G. J., Dirven, M. W., Heyenbrok, M. W., Hahlen, K., Veerman, A. J. In vitro drug sensitivity of cells with children with leukemia using the MTT assay with approved culture conditions. Blood 76:2327-2336, 1990).
(§2) Viable cells can reduce the dye; dead cells cannot. The effects on pDBD*4R9 on MCF-7 breast cancer cells and non-malignant NIH-3T3 cells were compared (Table 2).
(§3) 20,000 cells were plated in triplicate in a 96 well plate. 24 hr later, cells were washed once and growth medium was replaced with serum free medium containing pDBD*4R9 (termed ‘Frag49’ in the table) or no peptide (Control) and placed in a tissue culture incubator at 37 deg. After 1 hr, serum-containing medium was added to each well and the plates were reincubated for 5 hr. 20 μl of WST-1 dye was then added to each well, and 4 hr later, Absorbance at 450-595 nm was determined spectrophotometrically. A chemical blank (avg. of 4 wells, medium plus dye only) was subtracted from each raw score.

[2] = test system: MCF-7 breast cancer cells; assay: WST-1 dye reduction viability assay, MCF-7; type: cell-based, human
Method: as §1, §2, §3

[3] = test system: colon cancer line, CaCo-2; assay: WST viability assay, colon cancer line; type: cell-based
Method: (§4) For each cell line, the protocol was the same for determining the effects of pDBD*4R9.
(§5) Cells were plated in equal numbers and washed free of growth medium.
(§6) The peptide pDBD*4R9 was then added to the cells for one hour, after which they were returned to growth medium.
(§7) At a suitable interval thereafter, they were assayed for viability by use of the WST assay (described above), which measures the ability of viable cells' mitochondria to metabolize and therefore change the color of a water soluble tetrazolium dye (WST). By measuring the absorbance of the color, one has a quantitative correlate of viability: More absorbance=more viable cells.

[4] = test system: human leukemic CEM C714 cells; assay: Exogenous peptide on CEM C7-14 leukemic cells (WST viability); type: cell-based
Method: (§8) As shown below, pDBD*R9 was administered to CEM cell clones ICR-27, C7-14, and C1-15. Two of these clones are resistant to the synthetic glucocorticoid dexamethasone, commonly used in the treatment of acute lymphoblastic leukemia.
as §4, §5, §6, §7

CEM cell clone C1-15 = assay: Exogenous peptide on CEM clone C1-15; type: cell-based, human; details: CEM clone C1-15, peptide administered exogenously
Method: as §8

SWB-39 glioma = assay: Killing of SWB-39 glioma cells; type: cell-based
[5] = test system: basal cell carcinoma cells; assay: Killing of basal cell carcinoma cells; type: cell-based; details: line of basal cell carcinoma cells
[6] = test system: breast cancer GT-MCF-7 cells; assay: AlarmarBlue viability assay on GT-MCF-7 cells; type: cell-based, human; details: GT-MCF-7, four-hour treatment
Method: as §4
Cells were plated in equal numbers and washed free of growth medium. […]
In the experiment on MCF-7 cells, an equivalent assay (AlarmarBlue) was used.

[7] = test system: MCF-7 breast cancer cells; assay: Killing of MCF-7 breast cancer cells (qualitative); type: cell-based, human
[8] = test system: ICR-27 lymphoblastic clonal cell line; assay: Electroporation of pDBD*4 into ICR-27 cells, cell death; type: cell-based, human; details: transfected by electroporation
Method: FIG. 1 (A and B). Human leukemic ICR-27-4 cells were electroporated (500 μF, 300V) with 2 μg pDBD*4 peptide or without peptide (Control). Equal concentrations of cells were then plated and quantified for viable cell numbers over time.
(§9) Derivation of ICR-27 cells is found in Molecular & Cellular Biology (1981) 1:512-21 and of CEM1-15 and CEM7-14 in Genomics (2003) 81:175-97.
Equal concentrations of cells were then plated.
In FIG. 1A, cell viability was evaluated after 4 hr using the WST-1 dye reduction assay (8,9). Quadruplicate wells of a 96 well plate each received 200 μl of cells plus 20 μl of WST-1 dye. The plate was then placed in a tissue culture incubator for 4 hours. Spectrophotometric analysis was carried out on a plate reader with Absorbance read at 450-595 nm. Absorbancies were corrected for the average of triplicate chemical blanks (200 μl growth medium plus 20 μl WST-1 dye). Data are presented as percent of control.
In FIG. 1B, cell concentrations were determined after 4 hr. and 24 hr. by hemocytometer counts of duplicate aliquots, with trypan blue dye added in the 24 hr samples to discriminate non-viable, but membrane-intact cells.

[9] = test system: CEM 1-15 lymphoblastic clonal cell line; assay: Electroporation of pDBD*4 into CEM 1-15 cells, cell death; type: cell-based, human; details: transfected by electroporation
Excerpt: as §9

[10] = test system: CEM C7-14 lymphoblastic clonal cell line; assay: Electroporation of pDBD*4 into CEM C7-14 cells, cell death; type: cell-based, human; details: transfected by electroporation
Excerpt: as §9

[11] = test system: cell clones from the CEM leukemic cell system; assay: pDBD*4 in glucocorticoid-susceptible and -resistant clones of the CEM leukemic cell system; type: cell-based, human
Method: pDBD*4 was tested in cell clones from the CEM leukemic cell system. Some of those clones are susceptible to apoptotic cell death evoked by steroids of the glucocorticoid class; others are not. Both types of clones were killed by electroporation of pDBD*4 into the cells, whereas exogenous application of pDBD*4 produced no effect.

[12] = NIH-3T3, 1 h peptide, 5 h reincubation, 4 h dye, blank subtracted
[13] = MCF-7, 1 h peptide, 5 h reincubation, 4 h dye, blank subtracted

## RRRRRRRRRYLCAGRNDCIIAIKFEEKTAQHAAIENVFRLE (cysteines drawn unpaired) [pDBD*4R9]
ICR 27 leukemic cells; 5 μM peptide
  Cells/ml after 23 h: 1.8 × 10^5 Cells/ml
ICR 27 leukemic cells; 10 μM peptide
  Cells/ml after 23 h: 1.95 × 10^5 Cells/ml
ICR 27 leukemic cells; 20 μM peptide
  Cells/ml after 23 h: 0.5 × 10^5 Cells/ml
ICR 27 leukemic cells; ICR27-4, increasing concentrations
  cell loss / growth inhibition with increasing concentrations: caused cell loss in a dose-dependent manner
ICR 27 leukemic cells; ICR27-4, maximum dose tested
  loss of cells: > 2 log
ICR 27 leukemic cells
  cell killing: killed the cells in a dose dependent manner
ICR 27 leukemic cells; listed as pDBD*R9
  cell killing: killed in a dose-dependent manner
[1]; NIH-3T3, dose of Table 2
  metabolism of the tetrazolium dye: not significantly altered
[1]; [12]
  WST-1 Absorbance, 450-595 nm, Well 1: 0.199
  WST-1 Absorbance, 450-595 nm, Well 2: 0.216
  WST-1 Absorbance, 450-595 nm, Well 3: 0.196
[1]; NIH-3T3, average of 3 wells
  WST-1 Absorbance, 450-595 nm, Avg.: 0.204
[2]; MCF-7, dose of Table 2
  average reduction in ability to metabolize the tetrazolium dye: over 3 fold
[2]; [13]
  WST-1 Absorbance, 450-595 nm, Well 1: 0.045
  WST-1 Absorbance, 450-595 nm, Well 2: 0.087
  WST-1 Absorbance, 450-595 nm, Well 3: 0.289
[2]; MCF-7, average of 3 wells
  WST-1 Absorbance, 450-595 nm, Avg.: 0.140
[3]; Expt 1, 25 microM, duplicates, avg +/- range
  Absorbance: 0.08 +/− 0.01
[3]; Expt 1, 50 microM, duplicates, avg +/- range
  Absorbance: 0.16 +/− 0.005
[3]; Expt 2, 100 microM, triplicates, avg +/- 1 SD
  Absorbance: 0.19 +/− 0.05
[3]; colon cancer cells, single treatment, 25-100 microM
  estimated cell kill: 50-75%
[4]; CEM C714 cells
  anticancer effect (FIG. 3): significant anticancer effects
[4]; CEM clone C7-14, peptide administered exogenously
  cell killing: killed in a dose-dependent manner
CEM cell clone C1-15
  cell killing: killed in a dose-dependent manner
SWB-39 glioma
  killing activity / cell death: caused death
SWB-39 glioma; listed as pDBD*R9
  killing activity / cell death: Killing activity
[5]
  killing activity / cell death: caused death
[5]; listed as pDBD*R9
  killing activity / cell death: Killing activity
[6]
  anticancer effect (FIG. 2): significant anticancer effects
[7]
  killing activity / cell death: caused death
[7]; listed as pDBD*R9
  killing activity / cell death: Killing activity

## tyr-leu-cys-ala-gly-arg-asn-asp-cys-ile-ile-ala-ile-lys-phe-glu-glu-lys-thr-ala-gln-his-ala-ala-ile-glu-asn-val-phe-arg-leu-glu (YLCAGRNDCIIAIKFEEKTAQHAAIENVFRLE) [pDBD*4, 32-amino acid synthetic polypeptide, portion of the 89 aa peptide encoded by gene 398-465*]
ICR 27 leukemic cells
  cell killing: did not
[8]
  cell death: causes cell death
[9]
  cell death: causes cell death
[10]
  cell death: causes cell death
[11]; electroporation into glucocorticoid-susceptible and non-susceptible CEM clones
  cell killing: killed
[11]; exogenous application, CEM clones
  effect on cells: no effect
